Measured values reported in patent US10954232B2, “Pyrazole derivative as ALK5 inhibitor and uses thereof” (HANMI PHARMACEUTICAL CO., LTD., priority 2016, dated 2021).

Molecular target: T1, ALK5 kinase (Homo sapiens, UniProt P36897)
T1 construct: GST; purchased Thermo Fisher Scientific Solutions
T1 sequence (P36897 34-503): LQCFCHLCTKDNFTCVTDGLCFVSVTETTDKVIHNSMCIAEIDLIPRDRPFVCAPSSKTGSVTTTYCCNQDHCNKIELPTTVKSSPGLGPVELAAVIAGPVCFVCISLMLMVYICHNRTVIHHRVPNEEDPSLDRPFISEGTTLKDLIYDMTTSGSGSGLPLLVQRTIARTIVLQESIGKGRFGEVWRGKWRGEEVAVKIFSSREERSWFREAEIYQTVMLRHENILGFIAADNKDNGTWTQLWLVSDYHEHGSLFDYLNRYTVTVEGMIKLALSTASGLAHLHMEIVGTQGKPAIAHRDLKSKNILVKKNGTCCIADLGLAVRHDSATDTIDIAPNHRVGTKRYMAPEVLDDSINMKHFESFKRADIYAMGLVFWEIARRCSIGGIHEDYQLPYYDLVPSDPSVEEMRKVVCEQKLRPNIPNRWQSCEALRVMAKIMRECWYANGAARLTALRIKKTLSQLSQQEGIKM
Experiment: Activity inhibition test on ALK5 enzyme (LanthaScreen Eu binding kinase assay)
Settings: kinase tracer 178, 60 minutes at room temperature
Procedure, shortened: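 TR-FRET tracer-displacement format with final 5 nM ALK5, 2 nM Eu-GST antibody and 10 nM kinase tracer 178. Compound dilution series ran 1 μM–0.0001 μM, incubated 60 min at room temperature with stirring. Fluorescence was read ([…]), and IC50 came from percent inhibition versus control.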

Molecule	IC50 [nM]
CN(C)c1ccc(NC(=O)c2cc(-c3ccc4nccnc4c3)n(-c3cc(Cl)ccc3F)n2)cc1 [Example 204, 1-(5-chloro-2-fluorophenyl)-N-(4-(dimethylamino)phenyl)-5-(quinoxalin-6-yl)-1H-pyrazole-3-carboxyamide]	~100
Cc1cccc(-n2nc(C(=O)Nc3ccc4c(c3)OCCO4)cc2-c2ccc3nccnc3c2)n1 [Example 169, N-(2,3-dihydrobenzo[b][1,4]dioxin-6-yl)-1-(6-methylpyridin-2-yl)-5-(quinoxalin-6-yl)-1H-pyrazole-3-carboxyamide]	10 to 100
Cc1cccc(-n2nc(C(=O)Nc3ccc4c(c3)OCO4)cc2-c2ccc3nccnc3c2)n1 [Example 168, N-(benzo[d][1,3]dioxol-5-yl)-1-(6-methylpyridin-2-yl)-5-(quinoxalin-6-yl)-1H-pyrazole-3-carboxyamide]	≤ 100
Cc1cccc(-n2nc(C(=O)Nc3ccc(N)cc3)cc2-c2ccc3ncnn3c2)n1 [Example 103, 5-([1,2,4]triazolo[1,5-α]pyridin-6-yl)-N-(4-aminophenyl)-1-(6-methylpyridin-2-yl)-1H-pyrazole-3-carboxyamide]	9.1
COc1cccc(NC(=O)c2cc(-c3ccc4nccnc4c3)n(-c3cccc(C)n3)n2)c1 [Example 165, N-(3-methoxyphenyl)-1-(6-methylpyridin-2-yl)-5-(quinoxalin-6-yl)-1H-pyrazole-3-carboxyamide]	24
Cc1cccc(-n2nc(C(=O)Nc3ccc(N(C)CCN(C)C)cc3)cc2-c2ccc3ncsc3c2)n1 [Example 15, 5-(benzo[d]thiazol-6-yl)-N-(4-((2-(dimethylamino)ethyl)(methyl)amino)phenyl)-1-(6-methylpyridin-2-yl)-1H-pyrazole-3-carboxyamide]	6.4
Cc1cccc(-n2nc(C(=O)Nc3ccc(F)cc3)cc2-c2ccc3ncnn3c2)n1 [Example 126, 5-([1,2,4]triazolo[1,5-α]pyridin-6-yl)-N-(4-fluorophenyl)-1-(6-methylpyridin-2-yl)-1H-pyrazole-3-carboxyamide]	~10
Cc1cccc(-n2nc(C(=O)NCc3ccc(F)cc3)cc2-c2ccc3ncnn3c2)n1 [Example 157, 5-([1,2,4]triazolo[1,5-α]pyridin-6-yl)-N-(4-fluorobenzyl)-1-(6-methylpyridin-2-yl)-1H-pyrazole-3-carboxyamide]	10 to 100
CCOC(=O)c1cccc(NC(=O)c2cc(-c3ccc4ncsc4c3)n(-c3cccc(C)n3)n2)c1 [Example 24, ethyl 3-(5-(benzo[d]thiazol-6-yl)-1-(6-methylpyridin-2-yl)-1H-pyrazole-3-carboxyamido)benzoate]	~100
Cc1cccc(-n2nc(C(=O)Nc3ccccc3)cc2-c2ccc3ncsc3c2)n1 [Example 18, 5-(benzo[d]thiazol-6-yl)-1-(6-methylpyridin-2-yl)-N-phenyl-1H-pyrazole-3-carboxyamide]	10 to 100
Cc1cccc(-n2nc(C(=O)Nc3ccc(Br)cc3)cc2-c2ccc3nccnc3c2)n1 [Example 191, N-(4-bromophenyl)-1-(6-methylpyridin-2-yl)-5-(quinoxalin-6-yl)-1H-pyrazole-3-carboxyamide]	10 to 100
CSc1ccc(NC(=O)c2cc(-c3ccc4ncsc4c3)n(-c3cccc(C)n3)n2)cc1 [Example 36, 5-(benzo[d]thiazol-6-yl)-1-(6-methylpyridin-2-yl)-N-(4-(methylthio)phenyl)-1H-pyrazole-3-carboxyamide]	< 10
CSc1ccc(NC(=O)c2cc(-c3ccc4ncnn4c3)n(-c3cccc(C)n3)n2)cc1 [Example 144]	10 to 100

The next lines start with the values.

IC50 [nM]	Molecule
< 100	CNC(=O)c1ccc(NC(=O)c2cc(-c3ccc4nccnc4c3)n(-c3cccc(C)n3)n2)cc1 [Example 182, N-(4-(methylcarbamoyl)phenyl)-1-(6-methylpyridin-2-yl)-5-(quinoxalin-6-yl)-1H-pyrazole-3-carboxyamide]
~10	CC(=O)N1CCN(c2ccc(NC(=O)c3cc(-c4ccc5ncnn5c4)n(-c4cccc(C)n4)n3)cc2)CC1 [Example 108, 5-([1,2,4]triazolo[1,5-α]pyridin-6-yl)-N-(4-(4-acetylpiperazin-1-yl)phenyl)-1-(6-methylpyridin-2-yl)-1H-pyrazole-3-carboxyamide]
19	COc1ccc(NC(=O)c2cc(-c3ccc4ncsc4c3)n(-c3cccc(C)n3)n2)c(F)c1 [Example 9, 5-(benzo[d]thiazol-6-yl)-N-(2-fluoro-4-methoxyphenyl)-1-(6-methylpyridin-2-yl)-1H-pyrazole-3-carboxyamide]
6.6	Cc1cccc(-n2nc(C(=O)Nc3ccc(S(=O)(=O)NC4CC4)cc3)cc2-c2ccc3ncsc3c2)n1 [Example 50, 5-(benzo[d]thiazol-6-yl)-N-(4-(N-cyclopropylsulfamoyl)phenyl)-1-(6-methylpyridin-2-yl)-1H-pyrazole-3-carboxyamide]
10 to 100	Cc1cccc(-n2nc(C(=O)Nc3ccc(Cl)cc3)cc2-c2ccc3ncsc3c2)n1 [Example 33, 5-(benzo[d]thiazol-6-yl)-N-(4-chlorophenyl)-1-(6-methylpyridin-2-yl)-1H-pyrazole-3-carboxyamide]
~100	COc1ccc(CNC(=O)c2cc(-c3ccc4nccnc4c3)n(-c3cccc(C)n3)n2)cc1 [Example 193, N-(4-methoxybenzyl)-1-(6-methylpyridin-2-yl)-5-(quinoxalin-6-yl)-1H-pyrazole-3-carboxyamide]
3.5	Cc1cccc(-n2nc(C(=O)Nc3ccc(S(C)(=N)=O)cc3)cc2-c2ccc3ncsc3c2)n1 (centres unmarked) [Example 89, 5-(benzo[d]thiazol-6-yl)-1-(6-methylpyridin-2-yl)-N-(4-(S-methylsulfonimidoyl)phenyl)-1H-pyrazole-3-carboxyamide]
18	COCCOc1ccc(NC(=O)c2cc(-c3ccnc4ccccc34)n(-c3cccc(C)n3)n2)cc1 [Example 217, N-(4-(2-methoxyethoxy)phenyl)-1-(6-methylpyridin-2-yl)-5-(quinolin-4-yl)-1H-pyrazole-3-carboxyamide]
30	Cc1cccc(-n2nc(C(=O)Nc3ccc4c(c3)OCO4)cc2-c2ccnc3ccccc23)n1 [Example 214, N-(benzo[d][1,3]dioxol-5-yl)-1-(6-methylpyridin-2-yl)-5-(quinolin-4-yl)-1H-pyrazole-3-carboxyamide]
40	Cc1cccc(-n2nc(C(=O)Nc3ccc(SC4CC4)cc3)cc2-c2ccc3ncsc3c2)n1 [Example 37, 5-(benzo[d]thiazol-6-yl)-N-(4-(cyclopropylthio)phenyl)-1-(6-methylpyridin-2-yl)-1H-pyrazole-3-carboxyamide]
> 100	COc1ccc(NC(=O)c2cc(-c3ccc4nccnc4c3)n(-c3cc(Cl)ccc3F)n2)cc1 [Example 203, 1-(5-chloro-2-fluorophenyl)-N-(4-methoxyphenyl)-5-(quinoxalin-6-yl)-1H-pyrazole-3-carboxyamide]
9.7	5-([1,2,4]triazolo[1,5-α]pyridin-6-yl)-N-(4-((1,1-dioxidotetrahydrothiophen-3-yl)amino)phenyl)-1-(6-methylpyridin-2-yl)-1H-pyrazole-3-carboxyamide [Example 109]
5.8	Cc1cccc(-n2nc(C(=O)Nc3ccc(F)c(F)c3)cc2-c2ccc3ncsc3c2)n1 [Example 30, 5-(benzo[d]thiazol-6-yl)-N-(3,4-difluorophenyl)-1-(6-methylpyridin-2-yl)-1H-pyrazole-3-carboxyamide]
< 10	C=Cc1ccc(NC(=O)c2cc(-c3ccc4ncnn4c3)n(-c3cccc(C)n3)n2)cc1 [Example 119, 5-([1,2,4]triazolo[1,5-α]pyridin-6-yl)-1-(6-methylpyridin-2-yl)-N-(4-vinylphenyl)-1H-pyrazole-3-carboxyamide]
10 to 100	CC(=O)Nc1ccc(CNC(=O)c2cc(-c3ccc4ncnn4c3)n(-c3cccc(C)n3)n2)cc1 [Example 161, 5-([1,2,4]triazolo[1,5-α]pyridin-6-yl)-N-(4-acetamidobenzyl)-1-(6-methylpyridin-2-yl)-1H-pyrazole-3-carboxyamide]
10 to 100	Cc1cccc(-n2nc(C(=O)Nc3ccc(Cl)c(Cl)c3)cc2-c2ccc3ncnn3c2)n1 [Example 141, 5-([1,2,4]triazolo[1,5-α]pyridin-6-yl)-N-(3,4-dichlorophenyl)-1-(6-methylpyridin-2-yl)-1H-pyrazole-3-carboxyamide]
< 10	COc1ccc(NC(=O)c2cc(-c3ccc4ncsc4c3)n(-c3cccc(C)n3)n2)cn1 [Example 65, 5-(benzo[d]thiazol-6-yl)-N-(6-methoxypyridin-3-yl)-1-(6-methylpyridin-2-yl)-1H-pyrazole-3-carboxyamide]
10 to 100	Cc1cccc(-n2nc(C(=O)Nc3cccc(F)c3F)cc2-c2ccc3ncnn3c2)n1 [Example 133, 5-([1,2,4]triazolo[1,5-α]pyridin-6-yl)-N-(2,3-difluorophenyl)-1-(6-methylpyridin-2-yl)-1H-pyrazole-3-carboxyamide]
5.6	Cc1cccc(-n2nc(C(=O)Nc3cccc(S(=O)(=O)NC4CC4)c3)cc2-c2ccc3ncsc3c2)n1 [Example 49, 5-(benzo[d]thiazol-6-yl)-N-(3-(N-cyclopropylsulfamoyl)phenyl)-1-(6-methylpyridin-2-yl)-1H-pyrazole-3-carboxyamide]
